The test system of assay [1] is HeLa wt cells. In words: MTT cell viability assay, HeLa wt. The assay is classed as cell-based. The conditions noted are these: Homo sapiens. In general terms: Formazan colour is commonly taken as a measure of viable cells.
Experimental: Cell viability was measured using the MTT (3-(4,5-dimethylthiazol-2-yl)-2,5-diphenyltetrazolium bromide) assay. HeLa cells were seeded in 96-well plates with a density of 5*10^3 cells/well. […] After the incubation time, 20 µL of a 5 mg/mL MTT stock solution (ROTH, Karlsruhe, Germany, #4022.3) were added to the cells and they were incubated at 37 °C and 5% CO2 in a humidified atmosphere for 30 min. Upon removal of the MTT-containing medium 100 µL DMSO per well were added for extraction of the formazan. Absorbance was measured at 570 nm and 650 nm (reference) with a microplate reader (SynergyMx, BioTek, Winooski, VT, USA). After subtraction of the reference value, the mean of the absorbance of the solvent control was set as 100% and the relative viability was calculated for each sample.
All IC50 values were calculated using GraphPad Prism 7.01.
Assay [2] has as its system JUNB. In words: TPP-TR/RTSA, JUNB. The assay is classed as binding, Homo sapiens. Particulars: 100 nM vs DMSO, 6 h, HeLa wt. On the procedure: (§1) TPP was performed essentially as described, but with major modifications to the TMT labeling sets and statistical data analysis for TPP-TR.
(§2) Adherent cells were washed in the dish once with DPBS and harvested by Trypsin–EDTA (0.25%, Thermo Fisher Scientific, Waltham, MA, USA, #25,200,056) treatment. […]
(§3) After temperature treatment, samples were supplemented with lysis buffer (final concentrations: 0.36 U/µL benzonase, 1.5 mM MgCl2, 1 mM Na3VO4, 10 mM NaF, 2.5 mM Na4P2O7, 0.8% w/v NP-40) for 1 h on ice. […] The total protein concentration of the resulting cell extracts containing the fraction of soluble, non-denatured proteins was determined (Pierce 660 nm Protein Assay, BSA as standard). […] The two (37 °C or 50 °C) x ten (concentrations) x three (replicates) = 60 TPP-CCR samples and two (treatment and control) x ten (temperatures) x three (replicates) = 60 TPP-TR samples were analyzed by LC–MS/MS. GRASP55 was additionally quantified from the TPP-TR samples by immunoblotting as described in the respective section.
(§4) For TPP-CCR, SP3 was performed as described with slight modifications to the original protocol using on average 5 µg total protein per sample and resulting in theoretically 5 µg peptides in 22 µL 50 mM triethylammonium bicarbonate per sample. […] This volume was calculated such that the lowest two temperature samples (36.5 °C and 41.2 °C) contained 10 µg total protein on average. […]

The target of assay [3] is T1, EFEMP1 (Homo sapiens, UniProt Q12805).
T1 construct: endogenous in cells; host or cells: HeLa wt cells
T1 sequence (Q12805 18-493): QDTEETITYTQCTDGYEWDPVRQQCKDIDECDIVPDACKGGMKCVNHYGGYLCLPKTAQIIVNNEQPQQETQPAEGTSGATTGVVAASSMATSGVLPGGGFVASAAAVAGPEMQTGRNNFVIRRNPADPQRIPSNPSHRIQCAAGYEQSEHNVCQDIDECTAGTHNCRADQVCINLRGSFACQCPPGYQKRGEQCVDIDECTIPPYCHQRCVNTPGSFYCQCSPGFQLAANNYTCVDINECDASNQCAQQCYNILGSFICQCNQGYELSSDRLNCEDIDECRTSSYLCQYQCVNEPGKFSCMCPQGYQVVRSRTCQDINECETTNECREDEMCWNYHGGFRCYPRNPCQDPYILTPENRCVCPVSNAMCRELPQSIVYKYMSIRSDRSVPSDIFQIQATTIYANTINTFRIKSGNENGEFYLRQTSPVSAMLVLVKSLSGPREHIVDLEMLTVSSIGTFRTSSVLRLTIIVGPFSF
In words: TPP-TR/RTSA, EFEMP1. It counts as binding. The protocol:
as §1, §2, §3, §4

Assay [4] deals with T2, SDC4 (Homo sapiens, UniProt P31431).
T2 construct: endogenous in cells; host or cells: HeLa wt cells
T2 sequence (P31431 19-198): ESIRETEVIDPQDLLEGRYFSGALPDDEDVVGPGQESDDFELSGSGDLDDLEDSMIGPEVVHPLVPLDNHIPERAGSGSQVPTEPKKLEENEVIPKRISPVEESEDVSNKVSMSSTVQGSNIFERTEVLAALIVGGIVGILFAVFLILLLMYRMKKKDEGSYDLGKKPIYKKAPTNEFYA
In words: TPP-TR/RTSA, SDC4. The assay is classed as binding. On the procedure:
as §1, §2, §3, §4

Setting [5] is: 100 nM vs DMSO, 6 h, HeLa wt, read-out: Mean_dTm.

Where two headings read alike, the source gives them in different places.

The IC50 is the concentration needed to halve the response being measured. `CCCCCC1=C/C(=C/c2[nH]c(-c3ccc[nH]3)cc2OC)N=C1C` [Prodigiosin, prodigiosin]: the half-inhibitory concentration (IC50) worked out at 685 nM in assay [1] (24 h, Fig. 1B, read-out: IC50 (24 h)); 547 nM in assay [1] (24 h, Fig. 5C (independent of Fig. 1B), read-out: IC50 value wt); 77 nM in assay [1] (72 h, Fig. 1B, read-out: IC50 (72 h)); 63.9 nM in assay [1] (72 h, Fig. 5C (independent of Fig. 1B), read-out: IC50 value wt). The Mean_dTm in assay [2] is 2.343. In addition, the ΔTm at 0.1 µM in assay [3] (setting [5]) turned out to be 1.55 °C; in assay [4] (setting [5]), 0.55 °C. Besides, the distancescore in assay [3] (RTSA distance score) is given as 13.326; in assay [4] (RTSA distance score), 10.308.

For the origin of these results see PMC10552397 (Cell Communication and Signaling : CCS, 2023).
